The subject of experiment [1] is Septoria tritici (ATCC 26517). The experiment in a line: Minimum Inhibitory Concentration (MIC) vs. Septoria tritici, CLSI-based microdilution. Type of experiment: cell-based. Conditions: Zymoseptoria tritici, ATCC26517, 168 h; MIC = 50% reduction in growth of S. tritici, 7 days at 22 °C, RPMI/MOPS, 1% DMSO; read-out: Septoria Rating (MIC). As for the experimental part: Compounds of the present disclosure were assessed for their ability to inhibit the growth of a common strain of the fungal plant pathogen Septoria tritici (ATCC 26517) using a procedure based on a Clinical and Laboratory Standards Institute (CLSI) microdilution assay protocol for filamentous fungi. Stock solutions of the test compounds and standards were prepared in DMSO at 6400 μg/mL. Each stock solution was used to prepare a 2-fold dilution series ranging from 16 to 0.016 μg/mL (total of 11 compound concentrations) in RPMI-1640 (Roswell Park Memorial Institute) medium containing 3-(N-morpholino)propanesulfonic acid (MOPS) buffer and 2% DMSO. A 100 μL aliquot of the dilutions was added to columns 1 (16 μg/mL compound) through 11 (0.016 μg/mL compound) of a 96-well microtiter plate. This format was replicated in a second row of the microtiter plate. Thus, each microtiter plate could include 11 concentrations of four test or control compounds replicated twice. A 100 μL aliquot of RPMI-1640/MOPS/2% DMSO medium was added to column 12 (no compound control) of the microtiter plate. A fresh culture of S. tritici was used to prepare a solution of approximately 5×10^4 colony-forming units per milliliter (cfu/mL) in RPMI/MOPS medium without DMSO. A 100 μL aliquot of this solution was added to all 96 wells in the microtiter plate. […] In each case of Table 3 the Septoria rating scale is as follows: […]
On the technique in general: Dilution methods test growth across graded concentrations, often in twofold steps.

The subject of experiment [2] is T. rubrum. The experiment in a line: Minimum Inhibitory Concentration (MIC) (T. rubrum), CLSI M27-A2. In kind it is cell-based. Conditions: Trichophyton rubrum; about 50% growth reduction, approx. 96 h at 35 °C, RPMI+MOPS. The method, then:
Compounds of the present disclosure were assessed for their ability to inhibit the growth of common strains of fungus, T. rubrum using a standardized procedure (CLSI M27-A2). Stock solutions of the test compounds and standards were prepared in DMSO at 1,600 μg/mL (T. rubrum). Eleven, serial, one-half dilutions of compounds were prepared in 96-well plates in RPMI+MOPS. The assay concentration ranges were 8-0.001 μg/mL (T. rubrum). Cell suspensions of T. rubrum were prepared and added to each well at concentrations of approximately 3.7×10^3 colony-forming-units per milliliter (cfu/mL). All testing was in duplicate. The inoculated plates were incubated for approximately 96 h at 35±1° C. At the completion of incubation the wells of each plate were evaluated visually for the presence of fungal growth. […] For voriconazole the MIC was the concentration which reduced T rubrum growth by 50% (per CLSI, M27-A2). For QC purposes C. krusei isolate ATCC 6258 (4.0×10^3 cfu/mL) was included in the VOR assay.

Experiment [3] concerns Puccinia recondita tritici = Puccinia triticina (PUCCRT). The experiment is described as follows: Fungicidal activity vs. leaf rust on wheat plants (1-day protectant spray). Type of experiment: in vivo. Conditions: wheat (variety Yuma) sprayed at 50 ppm, inoculated next day, disease severity evaluated 7-9 days later, read-out: Puccinia Rating (% Disease Control @ 50 ppm). The text has this:
Each pot contained 3-8 seedlings. These plants were sprayed until wet with the formulated test compounds. The compounds were formulated at 50 ppm in 10 vol. % acetone plus 90 vol. % Triton X water (deionized water 99.99 wt %+0.01 wt % Triton X100), giving a “formulated test compound.” Formulated test compounds were applied to plants using a turn table sprayer fitted with two opposing air atomization nozzles which delivered approximately 1500 L/ha of spray volume. On the following day, the leaves were inoculated with an aqueous spore suspension of Puccinia recondita tritici and the plants were kept in high humidity overnight to permit spores to germinate and infect the leaf. The plants were then transferred to a greenhouse until disease developed on untreated control plants. Disease severity was evaluated 7-9 days later, depending on the speed of disease development. In each case of Table 3, the Puccinia rating scale is as follows: […]

≈ marks a conversion by molar mass, not a printed value.

From patent US20150246898A1, “METALLOENZYME INHIBITOR COMPOUNDS” (DOW AGROSCIENCES LLC, priority 2012, published 2015) come the findings set out here.

For `OC(c1cncnc1)(c1ccc(F)cc1F)C(F)(F)c1ccc(Br)cn1` (racemic) [Example 1, 2-(5-bromopyridin-2-yl)-1-(2,4-difluorophenyl)-2,2-difluoro-1-(pyrimidin-5-yl)ethanol], the values for the MIC in experiment [1] and in experiment [2] were 0.5 to 1.5 µg/mL (≈ 1.17 to 3.5 µM) and 0.125 µg/mL (≈ 0.292 µM), respectively.

In the case of `OC(c1cncnc1)(c1ccc(F)cc1F)C(F)(F)c1ccc(C#Cc2ccc(F)cc2)cn1` (racemic) [Example 2, 1-(2,4-difluorophenyl)-2,2-difluoro-2-(5-((4-fluorophenyl)ethynyl)pyridin-2-yl)-1-(pyrimidin-5-yl)ethanol], the MIC (commonly the lowest concentration that inhibits growth of the organism) in experiment [1] was at most 0.5 µg/mL; in experiment [2], 0.25 µg/mL (≈ 0.535 µM). The pest or weed control at 50 ppm in experiment [3] is 80 to 100%.

In experiment [2], `C[C@@H](c1ncncc1F)[C@](O)(Cn1cncn1)c1ccc(F)cc1F` [Voriconazole, voriconazole, reference compound] had an MIC of 0.062 µg/mL (≈ 0.177 µM).
